# Experimental data reported in patent US8722343B2, “Methods and compositions for the diagnosis and treatment of diabetes” (priority 2008, dated 2014).
# What was measured:
# [1] = system: βTC3 cells; experiment: TUNEL apoptosis assay in βTC3 cells; format: cell-based; details: 0.1 mM DHK for five days
# Procedure: 1B: Glutamate overstimulation causes increased β-cell apoptosis. 24 hours after plating, βTC3 cells were incubated for five days with 0.5 mM glutamate, and cell apoptosis was assessed by TUNEL assay. The cell nuclei were labelled with PrI. Histograms on the right represent TUNEL positive cells per field, and are the mean±SE of two independent experiments performed in duplicate.
# 6C TUNEL assay: 24 hours after plating, βTC3 cells were incubated for five days with 0.1 mM DHK, and cell apoptosis was assessed by TUNEL assay. Cell nuclei were labelled with PrI. Data are presented as TUNEL positive cells per field (histograms on the right), and are the mean±SE of two independent experiments performed in duplicate. * P<0.05
# 6D ShRNA interference. βTC3 cells were transfected with two different shRNA directed against GLT1 (Sh1, Sh3) or a control shRNA (ShC), and three days after transfection, cells were assayed for 3[H]-D-aspartate uptake (b) or lysed and the presence of GLT assayed by western blotting (a) or fixed and processed for TUNEL (c).
# Apoptosis of β-TC3 cells was estimated using the terminal deoxynucleotidyltransferase-mediated dUTP-biotin nick end-labelling assay (TUNEL). […] Tunel-positive cells were counted by two independent observers using a 40× objective from at least 40 randomly selected fields per coverslip. […]
# [2] = system: human isolated islets; format: cell-based; details: 16.7 mM glucose; DHK (0.3 mM) or L-glutamate (0.5 mM) alone
# Procedure: FIG. 5: GLT1 CONTROLS HORMONE SECRETION IN HUMAN ISOLATED ISLETS. 48 hours after isolation, 20 human islets per tube were exposed to 3.3 or 16.7 mM glucose in the absence and the presence of either L-glutamate (0.5 mM), DHK (0.3 mM) or both L-glutamate and DHK, and insulin secretion measured. Levels of secreted insulin from islets were normalized to total insulin content. Data are expressed as % of insulin content and represent the mean±SD of two independent experiments performer in duplicate.
# Insulin content and secretion were assessed on 20 islets, using a Micro-particle Enzyme Immunoassay (MEIA insulin, IMX System, Abbott Laboratories, Abbott Park, Ill., USA). Insulin secretion in response to increasing glucose concentrations, glutamate or DHK treatment was assessed by static incubation as previously described (Federici et al, 2000). Briefly, batches of 20 islets were pre-incubated in 1 ml of Krebs-Ringer buffer (KRB) supplemented with 3, 3 or 16.7 mM glucose for 30 min. Then the supernatants were replaced with Kreb's buffer containing 3, 3 or 16.7 mM glucose plus glutamate or the specific GLT1 inhibitor DHK (Sigma, St Louis, Mo., USA), as indicated. After a 30-min incubation at 37° C., the medium was removed and frozen for immunoassays. At the end of incubation, islets were lysed in lyses buffer and the total insulin content determined by immunoassay. […]
structure (smiles),measurement,setting,value
"CC(C)[C@H]1CN[C@H](C(=O)O)[C@H]1CC(=O)O [DHK, Dihydrokainic Acid]",cause of cytotoxicity by TUNEL assay,[1],due to apoptosis
same,effect on insulin secretion,[2],No effect
